As usually defined, the EC50 is the concentration at which the effect is half-maximal. As usually defined, the half-life is the time needed for the level to fall by half in the phase considered.

The test system of the first data set is HT-1080 cells. The experiment in a line: Inhibition of erastin (10 μM)-induced death in HT-1080 cells (Alamar Blue). In kind it is cell-based, human. The note with it: Homo sapiens, HT-1080, SI Table 4, various R3 substitutions; read-out: EC50. How it is done: Cell viability was typically assessed in 384-well format by Alamar Blue (Invitrogen) fluorescence (ex/em 530/590) measured on a Victor3 platereader (Perkin Elmer, Waltham, Mass.). In some experiments, Trypan Blue dye exclusion counting was performed using an automated cell counter (ViCell, Beckman-Coulter Inc., Brea, Calif.). Cell viability in test conditions is reported as a percentage relative to the negative control treatment.
The ability of various compounds disclosed herein to inhibit death in erastin (10 μM)-treated HT-1080 cells were tested. Cell viability was assessed by Alamar Blue. EC50 values (nM) were computed from dose response curves.
HT-1080 cells are cultured in DMEM containing 10% fetal bovine serum, 1% supplemented non-essential amino acids and 1% pen/strep mixture (Gibco) and maintained in a humidified environment at 37° C. with 5% CO2 in a tissue culture incubator. 1,000 HT-1080 cells are seeded per well in duplicate 384-well plates (Corning) using a BioMek FX liquid handling robot (Beckman Coulter). The next day, the medium is replaced with 36 μL of medium containing 10 μM erastin with 4 μL of medium containing a dilution series (previously prepared) of DMSO, Fer-1 (positive control) or Fer-1 analogs. 24 hours later, 10 μL Alamar Blue (Invitrogen) cell viability solution is added to the growth media to a final concentration of 10%. Cells are incubated a further 6 hours and then the Alamar Blue fluorescence intensity recorded using a Victor 3 platereader (PerkinElmer)(ex/em 530/590). All experiments are performed at least twice and the background (no cells)-subtracted Alamar Blue values for each combination are averaged between replicates.
In general terms: The colour change of resazurin is a common sign of viable cells or microbes.
In the case of `Nc1cc(C(=O)OCCN2CCOCC2)ccc1NC1CCCCC1` [SRS12-47, 2-morpholinoethyl 3-amino-4-(cyclohexylamino)benzoate], the 50% effective concentration (EC50) came to 660 nM.

The same data set, now with this note: Homo sapiens, HT-1080, SI Table 6; read-out: EC50.
`CCOC(=O)c1ccc(NC2CCCCC2)c(NCc2ccc(C(F)(F)F)cc2)c1` [SRS12-48, ethyl 4-(cyclohexylamino)-3-(4-(trifluoromethyl)benzylamino)-benzoate]: the EC50 was 46 nM.

In the case of `CCOC(=O)c1ccc(NC2CCCCC2)c(NCc2ccc(Cl)cc2)c1` [SRS12-49, ethyl 3-(4-chlorobenzylamino)-4-(cyclohexylamino)benzoate], the EC50 was determined as 371 nM. For the compound `CCOC(=O)c1ccc(NC2CCCCC2)c(NCc2ccc(C#N)cc2)c1` [SRS12-50, ethyl 3-(4-cyanobenzylamino)-4-(cyclohexylamino)benzoate], the EC50 was found to be 100 nM. As to `CCOC(=O)c1ccc(NC2CCCCC2)c(NCc2cccc(F)c2)c1` [SRS12-57, ethyl 4-(cyclohexylamino)-3-(3-fluorobenzylamino)benzoate], the EC50 worked out at 100 nM.

Turning to `CCOC(=O)c1ccc(NC2CCCCC2)c(NCc2cccc(Cl)c2)c1` [SRS12-58, ethyl 3-(3-chlorobenzylamino)-4-(cyclohexylamino)benzoate], the EC50 was determined as 41 nM.

As to `CCOC(=O)c1ccc(NC2CCCCC2)c(NCc2ccccc2[N+](=O)[O-])c1` [SRS12-71, ethyl 4-(cyclohexylamino)-3-(2-nitrobenzylamino)benzoate], the EC50 was determined as 126 nM.

Still in this data set, the particulars now being: Homo sapiens, HT-1080, SI Table 7; read-out: EC50.
Regarding `CCOC(=O)c1ccc(NC2CCCCC2)c(NCc2ccccn2)c1` [SRS12-46, ethyl 4-(cyclohexylamino)-3-(pyridin-2-ylmethylamino)-benzoate], the EC50 was determined as 33 nM. With `CCOC(=O)c1ccc(NC2CCCCC2)c(NCc2ccc3ccccc3c2)c1` [SRS12-51, ethyl 4-(cyclohexylamino)-3-(naphthalen-2-ylmethylamino)-benzoate], the EC50 came to 58 nM. Take `CCOC(=O)c1ccc(NC2CCCCC2)c(NCc2cc(F)cc(Br)c2)c1` [SRS12-52, ethyl 3-(3-bromo-5-fluorobenzylamino)-4-(cyclohexylamino)-benzoate]: the EC50 amounted to 105 nM.

In the case of `CCOC(=O)c1ccc(NC2CCCCC2)c(NCc2cc(OC)cc(OC)c2)c1` [SRS12-53, ethyl 4-(cyclohexylamino)-3-(3,5-dimethoxybenzylamino)-benzoate], the EC50 was 41 nM. `CCOC(=O)c1ccc(NC2CCCCC2)c(NCc2ccc(F)c(C#N)c2)c1` [SRS12-54, ethyl 3-(3-cyano-4-fluorobenzylamino)-4-(cyclohexylamino)-benzoate]: the EC50 was 159 nM. Same read-out and setting: then `CCOC(=O)c1ccc(NC2CCCCC2)c(NCc2cc(F)cc(F)c2)c1` [SRS12-59, ethyl 4-(cyclohexylamino)-3-(3,5-difluorobenzylamino)-benzoate], with 96 nM. For `CCOC(=O)c1ccc(NC2CCCCC2)c(NCc2ccc(C(=O)OC)cc2)c1` [SRS12-80, ethyl 4-(cyclohexylamino)-3-(4-(methoxycarbonyl)-benzylamino)benzoate], the EC50 is 33 nM.

Regarding `CCOC(=O)c1ccc(CNc2cc(C(=O)OCC)ccc2NC2CCCCC2)cc1` [SRS12-84, ethyl 4-(cyclohexylamino)-3-(4-(ethoxycarbonyl)benzylamino)-benzoate], the 50% effective concentration (EC50) amounted to 53 nM. On to `CCOC(=O)c1ccc(NC2CCCCC2)c(NCc2cccnc2)c1` [SRS13-12, ethyl 4-(cyclohexylamino)-3-(pyridin-3-ylmethylamino)-benzoate], for which the EC50 turned out to be 48 nM. On the same count and under the same terms, then `CCOC(=O)c1ccc(NC2CCC(C(C)(C)C)CC2)c(NCc2ccncc2)c1` (stereo not shown) [SRS13-30, ethyl 4-(4-tert-butylcyclohexylamino)-3-(pyridin-4-ylmethylamino)benzoate], with 114 nM.

The same data set, now with this note: Homo sapiens, HT-1080, Table 1 (Example 10); erastin (10 μM)-treated HT-1080 cells; read-out: EC50.
For `CCOC(=O)c1ccc(NC2C3CC4CC(C3)CC2C4)c(N)c1` (stereo not shown) [SRS15-17, ethyl 3-amino-4-(2-adamantylamino)benzoate], the EC50 was found to be 171 nM. Same read-out and setting: then `CCOC(=O)c1ccc(NC23CC4CC(CC(C4)C2)C3)c(N)c1` [SRS15-18, ethyl 3-amino-4-(1-adamantylamino)benzoate], with 87.7 nM; and `CCOC(=O)c1ccc(NC2C3CC4CC(C3)CC2C4)c(N(Cc2ccccc2)Cc2ccccc2)c1` (stereo not shown) [SRS15-20_di, ethyl 3-(dibenzylamino)-4-(2-adamantylamino)benzoate], with 914 nM. For `CCOC(=O)c1ccc(NC2C3CC4CC(C3)CC2C4)c(NCc2ccccc2)c1` (stereo not shown) [SRS15-20_mono, ethyl 3-(benzylamino)-4-(2-adamantylamino)benzoate], the EC50 came out at 21.7 nM.

Consider `CCOC(=O)c1ccc(NC2C3CC4CC(C3)CC2C4)c(NCc2ccncc2)c1` (stereo not shown) [SRS15-21, ethyl 4-(2-adamantylamino)-3-((pyridin-4-ylmethyl)amino)-benzoate], for which the EC50 stood at 23 nM. For the compound `CCOC(=O)c1ccc(NC23CC4CC(CC(C4)C2)C3)c(NCc2ccccc2)c1` [SRS15-23, ethyl 3-(benzylamino)-4-(1-adamantylamino)benzoate], the EC50 came out at 23 nM. With `CCOC(=O)c1ccc(NC23CC4CC(CC(C4)C2)C3)c(NCc2ccncc2)c1` [SRS15-24, ethyl 4-(1-adamantylamino)-3-((pyridin-4-ylmethyl)amino)-benzoate], the EC50 is 8.6 nM.

The data set is the same for the next values; noted with them: Table 1 (Example 10); erastin (10 μM)-treated HT-1080 cells.
Take `CCOC(=O)c1ccc(NC23CC4CC(CC(C4)C2)C3)c([N+](=O)[O-])c1` [SRS15-15]: the “EC50 (nM)” value was “Not active”.

Test system in the next data set: not listed separately
Put plainly: Metabolic stability in mouse liver microsomes. The note with it: Mouse, Compound Conc = 0.5 μM. In kind it is in vitro ADME. How it is done:
Test compounds (0.5 μM) were incubated at 37° C. for up to 45 minutes in 50 mM of potassium phosphate buffer (pH 7.4) containing mouse liver microsomal protein (0.5 mg/mL) and an NADPH generating system (0.34 mg/mL β-nicotinamide adenine dinucleotide phosphate (NADP), 1.56 mg/mL glucose-6-phosphate, 1.2 units/mL glucose-6-phosphate dehydrogenase). At 0, 5, 15, 30, and 45 minute intervals, an aliquot was taken and quenched with acetonitrile (ACN) containing internal standard. No-cofactor controls at 45 minutes were prepared. Following completion of the experiment, the samples were analyzed by LC-MS/MS.
The half-life (t1/2) was calculated using the following equation: t1/2=0.693/k Where, k is the elimination rate constant of test compounds obtained by fitting the data to the equation: C=initial×exp(−k×t) Intrinsic clearance (Clint) is calculated as liver clearance from the half-life using the following equation: […]
0.5 mg protein/mL incubation
Ethoxycoumarin was used as a control.
A general note: Liver microsomes are a subcellular fraction often used to study metabolism.
With `CCOc1ccc2ccc(=O)oc2c1` [Ethoxycoumarin, reference compound], the “Elimination rate constant (k)” value amounted to 0.2661 and the “Intrinsic Clearance (CLint) (mL/min/g liver)” value is listed as 27.94 mL/min/g liver.

Still in this data set, the particulars now being: mouse, liver microsomes, pH 7.4, Mouse, Compound Conc = 0.5 μM; read-out: Half life (t½).
In the case of `CCOc1ccc2ccc(=O)oc2c1` [Ethoxycoumarin, reference compound], the half-life at 0.5 μM came to 2.6 min.
